Reference: patent US7763617B2, “Pyrazolopyridine-4-yl pyridazinone derivatives and addition salts thereof, and PDE inhibitors comprising the same derivatives or salts as active ingredient” (Kyorin Pharmaceutical Co., Ltd., priority 2005, dated 2010)

Key:
[1] = biological target: T1, PDE4Bcat (Homo sapiens, UniProt Q07343); experiment: Inhibition of phosphodiesterase activity, [3H]-cAMP hydrolysis, recombinant PDE4Bcat; type: biochemical; conditions: cAMP 2 μmol/L, read-out: IC50(μmol/L) PDE4
T1 construct: catalytic domain (indicated as “cat,” hereinafter), PDE4Bcat; made in house; host or cells: Sf9 insect cells (baculovirus, Bac-to-Bac)
Protocol: (§1) RT-PCR was performed to isolate cDNA fragments of PDE3A catalytic domain (indicated as “cat,” hereinafter), PDE4Bcat, PDE5Acat and PDE10A1 from human RNA. Using Gateway system (Invitrogen) and Bac-to-Bac (registered trademark) Baculovirus Expression system (Invitrogen), the isolated cDNA fragments were transfected into Sf9 insect cells for expression of the PDE proteins. The recombinant PDE3Acat, PDE4Bcat, PDE5Acat and PDE10A1 proteins were isolated from culture supernatant or cell extracts of Sf9 cells expressed high levels of these proteins by ion-exchange chromatography and used for the following experiments.
(§2) 4 mmol/L solution of each test compound was serially diluted 4-fold with 15% DMSO solution to prepare the solutions with concentrations of 15 nmol/L to 4 mmol/L (final concentrations=1.5 nmol/L-400 μmol/L). 10 μL of each test compound solution was added to each well of 96 plate with 10 μL of [^3H]-cAMP or [^3H]-cGMP solution, diluted with a buffer (40 mmol/L Tris-HCl (pH 7.4), 10 mmol/L MgCl2) to the concentration shown in Table 20 and 40 μL of each of the human recombinant PDE proteins in units shown in Table 20. The plate was incubated at 30° C. for 20 min, and then at 65° C. for 2 min. Subsequently, 25 μL of 1 mg/mL 5′-nucleotidase (Crotalus atrox venom, Sigma) was added to each well and the plate was incubated at 30° C. for 10 min. 200 μL of Dowex solution (300 mg/mL Dowex 1×8-400 (Sigma Aldrich), 33% ethanol) was then added to each well and the plate was shaken at 4° C. for 20 min. Subsequently, 200 μL of MicroScint 20 (Packard) was added to each well and the radioactivity of each sample was measured by a scintillation counter (Topcount, Packard) IC50 was calculated by GraphPad Prism v3.03 (GraphPad Software).

[2] = biological target: T2, PDE3A catalytic domain (PDE3Acat) (Homo sapiens, UniProt Q14432); experiment: Inhibition of phosphodiesterase activity, [3H]-cAMP hydrolysis, recombinant PDE3Acat; type: biochemical; conditions: human recombinant PDE3Acat, cAMP 2 μmol/L; read-out: IC50(μmol/L) PDE3
T2 construct: cDNA fragments of PDE3A catalytic domain (indicated as “cat,” hereinafter); made in house; host or cells: Sf9 insect cells (baculovirus, Bac-to-Bac)
Protocol: as §1, §2

T1 sequence (Q07343 330-659 limits assumed): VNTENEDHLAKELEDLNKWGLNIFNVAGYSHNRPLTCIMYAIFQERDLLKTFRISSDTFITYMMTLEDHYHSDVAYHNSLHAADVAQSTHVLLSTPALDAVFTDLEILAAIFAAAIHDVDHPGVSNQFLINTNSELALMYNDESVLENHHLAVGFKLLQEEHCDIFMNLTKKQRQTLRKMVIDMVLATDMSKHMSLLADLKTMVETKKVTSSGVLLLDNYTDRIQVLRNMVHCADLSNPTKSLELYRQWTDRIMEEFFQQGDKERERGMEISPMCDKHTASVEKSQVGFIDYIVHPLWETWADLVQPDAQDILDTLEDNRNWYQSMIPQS
T2 sequence (Q14432 674-1093 limits assumed): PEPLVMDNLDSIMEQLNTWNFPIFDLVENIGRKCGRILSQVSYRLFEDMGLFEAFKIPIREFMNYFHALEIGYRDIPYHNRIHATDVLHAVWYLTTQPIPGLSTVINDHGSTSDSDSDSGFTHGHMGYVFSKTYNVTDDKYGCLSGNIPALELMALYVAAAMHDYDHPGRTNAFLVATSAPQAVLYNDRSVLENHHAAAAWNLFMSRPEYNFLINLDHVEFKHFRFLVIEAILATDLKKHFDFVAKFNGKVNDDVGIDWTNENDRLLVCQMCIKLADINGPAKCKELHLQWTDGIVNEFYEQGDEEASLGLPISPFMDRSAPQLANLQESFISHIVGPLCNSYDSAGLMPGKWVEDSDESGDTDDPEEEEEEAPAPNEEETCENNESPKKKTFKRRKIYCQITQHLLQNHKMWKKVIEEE

SMILES | IC50 [1] [µmol/L] | IC50 [2] [µmol/L]
COc1ccc(-c2cc(C)c(=O)n(Cc3cccnc3)n2)c2cc(C(C)C)nn12 [Example 299] | < 1 | > 10
COc1ccc(-c2ccc(=O)n(Cc3ccncc3)n2)c2cc(C(C)C)nn12 [Example 275] | 1 to 10 | > 10
CCc1cc2c(C3=NN(Cc4cccnc4)C(=O)CC3C)cc(F)cn2n1 (centres unmarked) [Example 287, 6-(2-ethyl-6-fluoro-pyrazolo[1,5-a]pyridine-4-yl)-4,5-dihydro-5-methyl-2-(pyridine-3-ylmethyl)-3-(2H)-pyridazinone] | 1 to 10 | > 10
COc1ccc(C2=NNC(=O)CC2C)c2cc(C(C)O)nn12 (centres unmarked) [Example 238, 6-[2-(1-hydroxyethyl)-7-methoxy-pyrazolo[1,5-a]pyridine-4-yl]-4,5-dihydro-5-methyl-3-(2H)-pyridazinone] | < 1 | 1 to 10
CCc1cc2c(C3=NNC(=O)CC3C)ccc(-c3ccccc3)n2n1 (centres unmarked) [Example 229] | 1 to 10 | 1 to 10
COc1ccc(C2=NNC(=O)CC2C)c2cc(CO)nn12 (centres unmarked) [Example 221] | 1 to 10 | 1 to 10
CCc1cc2c(C3=NNC(=O)CC3C)ccc(NC(C)=O)n2n1 (centres unmarked) [Example 228] | > 10 | 1 to 10
CCc1cc2c(C3=NNC(=O)CC3C)ccc(S(C)(=O)=O)n2n1 (centres unmarked) [Example 251, 6-(2-ethyl-7-methylsulfonyl-pyrazolo[1,5-a]pyridine-4-yl)-4,5-dihydro-5-methyl-3-(2H)-pyridazinone] | 1 to 10 | 1 to 10
CCOc1ccc(C2=NNC(=O)CC2C)c2cc(CC)nn12 (centres unmarked) [Example 244, 6-(7-ethoxy-2-ethyl-pyrazolo[1,5-a]pyridine-4-yl)-4,5-dihydro-5-methyl-3-(2H)-pyridazinone] | 1 to 10 | 1 to 10
CCc1cc2c(C3=NNC(=O)CC3C)ccc(N(C)C)n2n1 (centres unmarked) [Example 224] | 0.1 to 1 | 1 to 10
CCOC(=O)c1ccc(C2=NNC(=O)CC2C)c2cc(CC)nn12 (centres unmarked) [Example 204] | 1 to 10 | 1 to 10
COc1ccc(C2=NNC(=O)CC2C)c2cc(CF)nn12 (centres unmarked) [Example 236, 6-(2-fluoromethyl-7-methoxy-pyrazolo[1,5-a]pyridine-4-yl)-4,5-dihydro-5-methyl-3-(2H)-pyridazinone] | 0.1 to 1 | 1 to 10
CCc1cc2c(C3=NNC(=O)CC3C)ccc(N3CCOCC3)n2n1 (centres unmarked) [Example 226] | > 10 | 1 to 10
COc1ccc(-c2nn(C)c(=O)cc2C)c2cc(C(C)C)nn12 [Example 297] | < 1 | > 10
CCc1nn2c(S(C)(=O)=O)ccc(C3=NNC(=O)CC3C)c2c1O (centres unmarked) [Example 252] | 1 to 10 | 1 to 10
COc1ccc(-c2n[nH]c(=O)cc2C)c2cc(C(F)(F)F)nn12 [Example 303] | 1 to 10 | > 10
COc1ccc(-c2n[nH]c(=O)cc2C)c2c(F)c(C(C)C)nn12 [Example 279, 6-(3-fluoro-7-methoxy-2-isopropyl-pyrazolo[1,5-a]pyridine-4-yl)-5-methyl-3-(2H)-pyridazinone] | 0.1 to 1 | > 10
CCC1CC(=O)NN=C1c1ccc(OC)n2nc(C(F)(F)F)cc12 (centres unmarked) [Example 212] | < 1 | > 10
COc1ccc(-c2ccc(=O)n(Cc3ccccn3)n2)c2cc(C(C)C)nn12 [Example 274] | 0.1 to 1 | > 10
